Several values for one entry are separate records, joined by “and”; a condition that tells them apart may be missing. Identical values can stand only once.

The subject of experiment [1] is 26_ds (RNA, hairpin) CAAUCGGAUCGAAUUCGAUCCGAUUG
The experiment in a line: fluorescent intercalator displacement (FID). The conditions noted are these: 10 mM KCl + 10 mM potassium phosphate (20 mM K+); pH 7, room temperature; 0.25 µM RNA; 0.5 µM thiazole orange displaced.

Experiment [2] has as its system 22_TERRA (RNA, G4) AGGGUUAGGGUUAGGGUUAGGG
In words: fluorescent intercalator displacement (FID). The conditions noted are these: 10 mM KCl + 10 mM potassium phosphate (20 mM K+); pH 7, room temperature; 0.25 µM RNA; 0.5 µM thiazole orange displaced.

Experiment [3] relates to 22_TERRA_2Ap19 (RNA, G4, 2-aminopurine at 19) AGGGUUAGGGUUAGGGUUAGGG
In words: 2-aminopurine fluorescence quenching. The following applies: 10 mM KCl + 10 mM potassium phosphate; pH 7.0, room temperature; 2.5 μM RNA; 2.5 or 5 μM compound.

In experiment [4] the test system is 22_TERRA_2Ap13 (RNA, G4, 2-aminopurine at 13) AGGGUUAGGGUUAGGGUUAGGG
The experiment in a line: 2-aminopurine fluorescence quenching. The following applies: 10 mM KCl + 10 mM potassium phosphate; pH 7.0, room temperature; 2.5 μM RNA; 2.5 or 5 μM compound.

Experiment [5] relates to 22_TERRA_2Ap7 (RNA, G4, 2-aminopurine at 7) AGGGUUAGGGUUAGGGUUAGGG
In words: 2-aminopurine fluorescence quenching. The following applies: 10 mM KCl + 10 mM potassium phosphate; pH 7.0, room temperature; 2.5 μM RNA; 2.5 or 5 μM compound.

`C(=NC(COCc1ccc(COCC(N=Cc2ccccn2)c2ccccc2)cc1)c1ccccc1)c1ccccn1.C(=NC(COCc1ccc(COCC(N=Cc2ccccn2)c2ccccc2)cc1)c1ccccc1)c1ccccn1.C(=NC(COCc1ccc(COCC(N=Cc2ccccn2)c2ccccc2)cc1)c1ccccc1)c1ccccn1.[Fe+2].[Fe+2]` (stereo not shown) [5a]: the DC50 in experiment [1] was 720 ± 20 nM and 950 ± 80 nM; in experiment [2], 470 ± 50 nM and 570 ± 60 nM.

As to `C(=NC(COCc1cccc(COCC(N=Cc2ccccn2)c2ccccc2)c1)c1ccccc1)c1ccccn1.C(=NC(COCc1cccc(COCC(N=Cc2ccccn2)c2ccccc2)c1)c1ccccc1)c1ccccn1.C(=NC(COCc1cccc(COCC(N=Cc2ccccn2)c2ccccc2)c1)c1ccccc1)c1ccccn1.[Fe+2].[Fe+2]` (stereo not shown) [5b], the binding result in experiment [3], in experiment [4] and in experiment [5] was “yes” throughout. Also, the DC50 in experiment [1] was 1470 ± 90 nM and 1580 ± 100 nM; in experiment [2] it was 410 ± 40 nM and 270 ± 20 nM.

As for `C(=NC(COCc1ccc(-c2ccc(COCC(N=Cc3ccccn3)c3ccccc3)cc2)cc1)c1ccccc1)c1ccccn1.C(=NC(COCc1ccc(-c2ccc(COCC(N=Cc3ccccn3)c3ccccc3)cc2)cc1)c1ccccc1)c1ccccn1.C(=NC(COCc1ccc(-c2ccc(COCC(N=Cc3ccccn3)c3ccccc3)cc2)cc1)c1ccccc1)c1ccccn1.[Fe+2].[Fe+2]` (stereo not shown) [5c], the DC50 in experiment [1] is 830 ± 40 nM and 900 ± 70 nM; in experiment [2], 590 ± 40 nM and 690 ± 60 nM.

On to `C(=NC(COCc1ccc(Oc2ccc(COCC(N=Cc3ccccn3)c3ccccc3)cc2)cc1)c1ccccc1)c1ccccn1.C(=NC(COCc1ccc(Oc2ccc(COCC(N=Cc3ccccn3)c3ccccc3)cc2)cc1)c1ccccc1)c1ccccn1.C(=NC(COCc1ccc(Oc2ccc(COCC(N=Cc3ccccn3)c3ccccc3)cc2)cc1)c1ccccc1)c1ccccn1.[Fe+2].[Fe+2]` (stereo not shown) [5d], for which the DC50 in experiment [1] was 760 ± 30 nM and 820 ± 30 nM; in experiment [2] it was 590 ± 10 nM and 610 ± 20 nM.

On to `C(=NC(COCc1ccc(Sc2ccc(COCC(N=Cc3ccccn3)c3ccccc3)cc2)cc1)c1ccccc1)c1ccccn1.C(=NC(COCc1ccc(Sc2ccc(COCC(N=Cc3ccccn3)c3ccccc3)cc2)cc1)c1ccccc1)c1ccccn1.C(=NC(COCc1ccc(Sc2ccc(COCC(N=Cc3ccccn3)c3ccccc3)cc2)cc1)c1ccccc1)c1ccccn1.[Fe+2].[Fe+2]` (stereo not shown) [5e], for which the DC50 is 910 ± 40 nM and 930 ± 30 nM in experiment [1]; 680 ± 30 nM and 660 ± 20 nM in experiment [2].

For the compound `C(=NC(COCc1ccc(Cc2ccc(COCC(N=Cc3ccccn3)c3ccccc3)cc2)cc1)c1ccccc1)c1ccccn1.C(=NC(COCc1ccc(Cc2ccc(COCC(N=Cc3ccccn3)c3ccccc3)cc2)cc1)c1ccccc1)c1ccccn1.C(=NC(COCc1ccc(Cc2ccc(COCC(N=Cc3ccccn3)c3ccccc3)cc2)cc1)c1ccccc1)c1ccccn1.[Fe+2].[Fe+2]` (stereo not shown) [5f], the DC50 is 720 ± 70 nM and 800 ± 50 nM in experiment [1]; 470 ± 50 nM and 600 ± 60 nM in experiment [2].

As for `C(=NC(COCc1ccc(CCc2ccc(COCC(N=Cc3ccccn3)c3ccccc3)cc2)cc1)c1ccccc1)c1ccccn1.C(=NC(COCc1ccc(CCc2ccc(COCC(N=Cc3ccccn3)c3ccccc3)cc2)cc1)c1ccccc1)c1ccccn1.C(=NC(COCc1ccc(CCc2ccc(COCC(N=Cc3ccccn3)c3ccccc3)cc2)cc1)c1ccccc1)c1ccccn1.[Fe+2].[Fe+2]` (stereo not shown) [5g], the DC50 was 780 ± 40 nM and 770 ± 50 nM in experiment [1]; 510 ± 30 nM and 570 ± 50 nM in experiment [2].

In the case of `C(=NC(COCc1ccc2oc3ccc(COCC(N=Cc4ccccn4)c4ccccc4)cc3c2c1)c1ccccc1)c1ccccn1.C(=NC(COCc1ccc2oc3ccc(COCC(N=Cc4ccccn4)c4ccccc4)cc3c2c1)c1ccccc1)c1ccccn1.C(=NC(COCc1ccc2oc3ccc(COCC(N=Cc4ccccn4)c4ccccc4)cc3c2c1)c1ccccc1)c1ccccn1.[Fe+2].[Fe+2]` (stereo not shown) [5h], the DC50 was 870 ± 60 nM and 890 ± 20 nM in experiment [1]; 630 ± 40 nM and 640 ± 50 nM in experiment [2].

The record behind these values is article PMC7471899 (2020).
